# Data published in patent US12528761B2, “Thyromimetics” (Autobahn Therapeutics, Inc., priority 2020, dated 2026).
# Like-named read-outs stand apart in the source and are kept apart here.
# What was measured:
# TRα = target: T1, TRα (Homo sapiens, UniProt P10827); assay: TR reporter-gene assay (Gal4 DBD hybrid, luciferase), TRα; format: cell-based
# T1 construct: expressed in transfected cells; host or cells: HEK293
# T1 sequence (P10827 1-410 isoform P10827-2): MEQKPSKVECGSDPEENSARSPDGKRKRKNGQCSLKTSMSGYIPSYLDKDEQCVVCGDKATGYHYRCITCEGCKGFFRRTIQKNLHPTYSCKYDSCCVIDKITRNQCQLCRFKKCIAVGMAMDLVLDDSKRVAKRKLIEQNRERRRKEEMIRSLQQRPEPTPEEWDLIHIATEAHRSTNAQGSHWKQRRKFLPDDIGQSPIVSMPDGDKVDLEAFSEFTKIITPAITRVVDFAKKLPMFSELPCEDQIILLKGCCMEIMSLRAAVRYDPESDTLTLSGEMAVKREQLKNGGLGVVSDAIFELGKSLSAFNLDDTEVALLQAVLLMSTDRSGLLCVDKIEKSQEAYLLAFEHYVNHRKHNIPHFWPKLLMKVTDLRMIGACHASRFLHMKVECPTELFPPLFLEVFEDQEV
# Procedure: (§1) Compounds were tested for thyroid-hormone receptor activity using TR reporter-gene assays. Reporter cells used in the assays express a TR-receptor hybrid (either TRα or TRβ) in which the native N-terminal DNA binding domain (DBD) has been replaced with that of the yeast Gal4 DBD. The reporter gene, firefly luciferase, is functionally linked to the Gal4 upstream activation sequence (UAS). Both cell lines were derived from human embryonic kidney (HEK293).
# (§2) Step 1: A suspension of reporter cells was prepared in cell recovery medium containing 10% charcoal-stripped FBS, and dispensed into assay plates. The plates were pre-incubated for 6 hours in a cell culture incubator (37° C./5% CO2/85% humidity).
# (§3) These intermediate stocks were subsequently diluted directly into compound screening medium containing 10% charcoal-stripped FBS to generate “2×-concentration” treatment media (containing 0.2, 0.4 or 0.8% DMSO).
# (§4) Step 3: At the end of the pre-incubation period, culture media were discarded from the assay plates, and all wells received 100 μl of compound screening medium. 100 μl of each of the previously prepared “2×-concentration” treatment media were dispensed into duplicate assay wells, thereby achieving the desired final treatment concentrations. The final concentration of DMSO in all assay wells was 0.1, 0.2 or 0.4%. Assay plates were incubated for 24 hr in a cell culture incubator (37° C./5% CO2/85% humidity).
# (§5) Step 4: At the 24 h assay endpoint, treatment media were discarded and 100 µl/well of luciferase detection reagent was added. Relative luminometer units (RLUs) were quantified from each assay well.
# TRβ = target: T2, TRβ (Homo sapiens, UniProt P10828); assay: TR reporter-gene assay (Gal4 DBD hybrid, luciferase), TRβ; format: cell-based; conditions: for T3-SI (selectivity index, EC50 (TRα)/EC50 (TRβ)): class symbols
# T2 construct: expressed in transfected cells; host or cells: HEK293
# T2 sequence (P10828 217-461 limits assumed): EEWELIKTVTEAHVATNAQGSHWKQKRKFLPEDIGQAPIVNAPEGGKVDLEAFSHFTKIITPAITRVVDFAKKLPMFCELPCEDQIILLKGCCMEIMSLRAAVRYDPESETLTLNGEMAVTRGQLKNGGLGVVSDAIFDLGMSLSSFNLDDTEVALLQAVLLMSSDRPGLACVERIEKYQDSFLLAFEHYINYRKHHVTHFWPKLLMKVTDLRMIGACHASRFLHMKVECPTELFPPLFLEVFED
# Procedure: as §1, §2, §3, §4, §5
# [1] = HEK293-derived reporter cells, 24 hr treatment, read-out: TRα EC50
# [2] = HEK293-derived reporter cells, 24 hr treatment, read-out: TRβ EC50
SMILES,EC50 (TRα; [1]) [nM],EC50 (TRβ; [2]) [nM],"T3-SI (selectivity index, EC50 (TRα)/EC50 (TRβ)) (TRβ)",EC50 (TRα) [nM],EC50 (TRβ) [nM]
"CC(C)c1c(O)ccc(Cc2c(Cl)cc(C(C)C(=O)O)cc2Cl)c1F (stereo not drawn) [Compound 60, 2-(3,5-dichloro-4-(2-fluoro-4-hydroxy-3-isopropylbenzyl)phenyl)propanoic acid]",100 to 1000,100 to 1000,++ (3× < T3-SI ≤ 30×),–,–
"CC(C)c1c(O)ccc(Cc2c(Cl)cc(NCC(=O)O)cc2Cl)c1F [Compound 46, (3,5-dichloro-4-(2-fluoro-4-hydroxy-3-isopropylbenzyl)phenyl)glycine]",10 to 100,< 10,++ (3× < T3-SI ≤ 30×),–,–
"CC(C)c1cc(Cc2c(Cl)cc(NCC(=O)O)c(F)c2Cl)ccc1O [Compound 75, (3,5-dichloro-2-fluoro-4-(4-hydroxy-3-isopropylbenzyl)phenyl)glycine]",10 to 100,10 to 100,++ (3× < T3-SI ≤ 30×),–,–
"CNC(=O)C(F)(F)Oc1cc(Cl)c(Cc2ccc(O)c(C(C)C)c2)c(Cl)c1 [Compound 84, 2-(3,5-dichloro-4-(4-hydroxy-3-isopropylbenzyl)phenoxy)-2,2-difluoro-N-methylacetamide]",100 to 1000,100 to 1000,+ (T3-SI ≤ 3×),–,–
"CC(c1ccc(F)cc1)c1c(O)ccc(Cc2c(Cl)cc(CCC(=O)O)cc2Cl)c1F (stereo not drawn) [Compound 18, 3-(3,5-dichloro-4-(2-fluoro-3-(1-(4-fluorophenyl)ethyl)-4-hydroxybenzyl)phenyl)propanoic acid]",10 to 100,10 to 100,+ (T3-SI ≤ 3×),–,–
"CC(c1ccc(F)cc1)c1cc(Cc2c(Cl)cc(CC(=O)O)cc2Cl)ccc1O (stereo not drawn) [Compound 9, 2-(3,5-dichloro-4-(3-(1-(4-fluorophenyl)ethyl)-4-hydroxybenzyl)phenyl)acetic acid]",10 to 100,< 10,++ (3× < T3-SI ≤ 30×),–,–
"CC(C)c1c(O)ccc(Cc2c(Cl)cc(NCC(=O)O)c(F)c2Cl)c1F [Compound 78, (3,5-dichloro-2-fluoro-4-(2-fluoro-4-hydroxy-3-isopropylbenzyl)phenyl)glycine]",< 10,< 10,++ (3× < T3-SI ≤ 30×),–,–
"CC(c1ccc(F)cc1)c1c(O)ccc(Cc2c(Cl)cc(NC(=O)CC(=O)O)cc2Cl)c1F (stereo not drawn) [Compound 56, 3-((3,5-dichloro-4-(2-fluoro-3-(1-(4-fluorophenyl)ethyl)-4-hydroxybenzyl)phenyl)amino)-3-oxopropanoic acid]",100 to 1000,10 to 100,++ (3× < T3-SI ≤ 30×),–,–
"C[Si](C)(C)c1c(O)ccc(Cc2c(Cl)cc(CC(=O)O)c(F)c2Cl)c1F [Compound 151, 2-(3,5-dichloro-2-fluoro-4-(2-fluoro-4-hydroxy-3-(trimethylsilyl)benzyl)phenyl)acetic acid]",–,–,++ (3× < T3-SI ≤ 30×),100 to 1000,100 to 1000
"CC(C)c1cc(Cc2c(Cl)cc(CNCC(=O)O)cc2Cl)ccc1O [Compound 30, (3,5-dichloro-4-(4-hydroxy-3-isopropylbenzyl)benzyl)glycine]",100 to 1000,100 to 1000,+ (T3-SI ≤ 3×),–,–
"CC(Oc1cc(Cl)c(Cc2ccc(O)c(C(C)C)c2F)c(Cl)c1)C(=O)O (stereo not drawn) [Compound 58, 2-(3,5-dichloro-4-(2-fluoro-4-hydroxy-3-isopropylbenzyl)phenoxy)propanoic acid]",100 to 1000,10 to 100,++ (3× < T3-SI ≤ 30×),–,–

# Now from value to compound, other results behind:
EC50 (TRα; [1]) [nM],EC50 (TRβ; [2]) [nM],"T3-SI (selectivity index, EC50 (TRα)/EC50 (TRβ)) (TRβ)",SMILES,EC50 (TRα) [nM],EC50 (TRβ) [nM]
> 1000,> 1000,++ (3× < T3-SI ≤ 30×),"CC(C)c1cc(Cc2c(Cl)cc(C[S+]([O-])CC(=O)O)cc2Cl)ccc1O (stereo not drawn) [Compound 210, 2-((3,5-dichloro-4-(4-hydroxy-3-isopropylbenzyl)benzyl)sulfinyl)acetic acid]",–,–
10 to 100,10 to 100,++ (3× < T3-SI ≤ 30×),"Cc1cc(CCC(=O)O)cc(Cl)c1Cc1ccc(O)c(C(C)C)c1F [Compound 249, 3-(3-chloro-4-(2-fluoro-4-hydroxy-3-isopropylbenzyl)-5-methylphenyl)propanoic acid]",–,–
> 1000,> 1000,++ (3× < T3-SI ≤ 30×),"CCOC(=O)/C(=C\c1cc(Cl)c(Cc2ccc(O)c(C(C)C)c2)c(Cl)c1)C(=O)O [Compound 90, 3-(3,5-dichloro-4-(4-hydroxy-3-isopropylbenzyl)phenyl)-2-(ethoxycarbonyl)acrylic acid]",–,–
< 10,< 10,++ (3× < T3-SI ≤ 30×),"C/C(=C\c1cc(Cl)c(Cc2ccc(O)c(C(C)C)c2F)c(Cl)c1)C(=O)O [Compound 205, (E)-3-(3,5-dichloro-4-(2-fluoro-4-hydroxy-3-isopropylbenzyl)phenyl)-2-methylacrylic acid]",–,–
100 to 1000,> 1000,+ (T3-SI ≤ 3×),"CC(C)c1cc(Cc2c(Cl)cc(C=C(C(=O)O)C(=O)O)cc2Cl)ccc1O [Compound 108, 2-(3,5-dichloro-4-(4-hydroxy-3-isopropylbenzyl)benzylidene)malonic acid]",–,–
10 to 100,10 to 100,++ (3× < T3-SI ≤ 30×),"Cc1cc(NCC(=O)O)cc(Cl)c1Cc1ccc(O)c(C(C)C)c1F [Compound 247, (3-chloro-4-(2-fluoro-4-hydroxy-3-isopropylbenzyl)-5-methylphenyl)glycine]",–,–
10 to 100,10 to 100,++ (3× < T3-SI ≤ 30×),"Cc1cc(NCC(=O)O)cc(Cl)c1Cc1ccc(O)c(C(C)C)c1 [Compound 125, (3-chloro-4-(4-hydroxy-3-isopropylbenzyl)-5-methylphenyl)glycine]",–,–
100 to 1000,100 to 1000,++ (3× < T3-SI ≤ 30×),"Cc1c(F)c(SCC(=O)O)cc(Cl)c1Cc1ccc(O)c(C(C)C)c1 [Compound 227, 2-((5-chloro-2-fluoro-4-(4-hydroxy-3-isopropylbenzyl)-3-methylphenyl)thio)acetic acid]",–,–
100 to 1000,100 to 1000,++ (3× < T3-SI ≤ 30×),"Cc1cc(SCC(=O)O)c(F)c(Cl)c1Cc1ccc(O)c(C(C)C)c1 [Compound 225, 2-((3-chloro-2-fluoro-4-(4-hydroxy-3-isopropylbenzyl)-5-methylphenyl)thio)acetic acid]",–,–
10 to 100,100 to 1000,++ (3× < T3-SI ≤ 30×),"CC(C)c1cc(Cc2c(Cl)cc(CSCC(=O)O)cc2Cl)ccc1O [Compound 95, 2-((3,5-dichloro-4-(4-hydroxy-3-isopropylbenzyl)benzyl)thio)acetic acid]",–,–
10 to 100,10 to 100,++ (3× < T3-SI ≤ 30×),"CC(C)c1c(O)ccc(Cc2c(Cl)cc(CNCC(=O)O)c(F)c2Cl)c1F [Compound 153, (3,5-dichloro-2-fluoro-4-(2-fluoro-4-hydroxy-3-isopropylbenzyl)benzyl)glycine]",–,–
